Earlier results as cited in patent EP2151446B1, “Process for the preparation of bidentate schiff base ruthenium catalysts containing a salicylaldimine-type ligand” (Rimtec Corporation, priority 2008, dated 2010).

Settings: in water

pKb, about 3.69:
O=C([O-])[O-].[Li+].[Li+] [Li2CO3]
O=C([O-])[O-].[K+].[K+] [Entry K2CO3]
O=C([O-])[O-].[Cu+2] [CuCO3]
O=C([O-])[O-].[Na+].[Na+] [Na2CO3]
